Two molecules from publication PMC11024163, “MmcA is an electron conduit that facilitates both intracellular and extracellular electron transport in Methanosarcina acetivorans” (Nature Communications, 2024) can be followed below.

This experiment deals with T1, MmcA (Methanosarcina acetivorans, UniProt Q8TSY5).
T1 construct: gene MA_0658; mature holo-protein of 476 aa (signal peptide removed), C-terminal 3xFLAG and twin-Strep tags kept; homologous expression in M. acetivorans, anti-Flag purified from Triton X-100 solubilised membranes; seven covalent hemes c
T1 sequence (Q8TSY5 25-500): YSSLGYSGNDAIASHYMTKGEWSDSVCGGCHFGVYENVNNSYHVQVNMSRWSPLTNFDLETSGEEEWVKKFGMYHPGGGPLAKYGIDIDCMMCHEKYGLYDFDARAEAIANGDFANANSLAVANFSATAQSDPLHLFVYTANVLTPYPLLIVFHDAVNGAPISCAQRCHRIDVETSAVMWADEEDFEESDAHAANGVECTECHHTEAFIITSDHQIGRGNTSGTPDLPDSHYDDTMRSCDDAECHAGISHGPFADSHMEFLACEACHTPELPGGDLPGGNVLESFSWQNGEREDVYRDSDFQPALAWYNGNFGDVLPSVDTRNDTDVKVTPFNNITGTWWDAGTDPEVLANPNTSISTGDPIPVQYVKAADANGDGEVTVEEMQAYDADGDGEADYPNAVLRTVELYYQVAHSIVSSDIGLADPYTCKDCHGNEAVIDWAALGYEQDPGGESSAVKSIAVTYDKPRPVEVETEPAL
The experiment can be described thus: UV-vis spectral oxidation of dithionite-reduced MmcA. As to conditions: 2.5–3.5 µM MmcA, 50 mM Tris-HCl, 150 mM NaCl, 2% glycerol, pH 7.4, room temperature, anaerobic. Format: biochemical.

`Oc1ccc2nc3ccccc3nc2c1` [2HP, 2-hydroxyphenazine]: for the setting “electron acceptor, soluble methanophenazine analogue, 200 µM”, the “UV-vis spectral oxidation of dithionite-reduced MmcA” value is “The addition of 2HP instantaneously oxidized MmcA as observed by a shift in its Soret”.

Take `O=C1c2ccc(S(=O)(=O)O)cc2C(=O)c2ccc(S(=O)(=O)O)cc21` [AQDS, anthraquinone-2,6-disulfonate]: the “UV-vis spectral oxidation of dithionite-reduced MmcA” value (electron acceptor in excess) is on record as “All three electron acceptors oxidized MmcA rapidly”.
